The conditions of data set [1]: after an oral dose; cited from earlier work.
Data set [2] in a line: Excretion after an oral dose of abiraterone acetate (literature). Type of data set: in vivo. As to conditions: feces plus urine. From the text:
Due to highly lipophilic nature and poor aqueous solubility in the gastrointestinal tract, the oral bioavailability of abiraterone acetate is limited. After an oral dose of abiraterone acetate, 88% of the administered drug gets excreted unchanged through feces, and another 5% is excreted in the urine (Ryan C J et al., J ClinOncol. 2010; 28(9):1481-1488). Therefore, >90% of the administered drug gets excreted and is not used for its intended treatment. […] As a result, Zytiga® must be taken on an empty stomach with water at least […] a meal. There is a need for developing new pharmaceutical compositions for abiraterone acetate that improve bioavailability in the fasted state to in turn reduce the food effect and overall variability in absorption.

The values that follow come from patent US20220387451A1, “AMORPHOUS PHARMACEUTICAL COMPOSITIONS OF ABIRATERONE ACETATE” (SUVEN LIFE SCIENCES LIMITED, priority 2019, published 2022).

`CC(=O)O[C@H]1CC[C@@]2(C)C(=CC[C@@H]3[C@@H]2CC[C@]2(C)C(c4cccnc4)=CC[C@@H]32)C1` [Abiraterone acetate]: in data set [1], the “administered drug excreted in the urine” value is listed as 5% and the “administered drug excreted unchanged through feces” value is 88%. In addition, in data set [2], the administered drug excreted is over 90%.
